The structures appear in SMILES notation.

Four compounds from patent publication US20240132493A1, “IMIDAZOPYRIDINE DERIVATIVES AS STING AGONISTS” (Fulgent Genetics, Inc., priority 2021, published 2024) can be followed below.

The target of data set [1] is T1, STING (Homo sapiens, UniProt Q86WV6, G230A/H232R/R293Q/R71H).
T1 construct: Human monocyte cell THP-1 were purchased from ATCC (Catalog No. TIB-202); host or cells: THP-1 human monocyte cells
As to the kind of experiment: qPCR analysis of mRNA levels of cytokine gene expression (IFNB, ISG15, CXCL10) in THP-1 cells. The format is cell-based. Particulars: 10 μM compound, 6 h, vs DMSO. The procedure:
qPCR analysis of mRNA levels of cytokine gene expression in THP-1 cell Human monocyte cell THP-1 were purchased from ATCC (Catalog No. TIB-202). The complete growth medium was made with ATCC-formulated RPMI-1640 Medium (Catalog No. 30-2001) and supplemented with 2-mercaptoethanol to a final concentration of 0.05 mM, and fetal bovine serum (FBS) to a final concentration of 10%.
To evaluate the agonistic effects of chemicals on STING, the gene expression of IFNB, ISG15 and CXCL10 in human monocyte THP-1 cells was measured by real time qPCR. After the treatment of 10 μM Compounds for 6 hrs, cells were respectively lysed by TRIzol reagents (from Invitrogen). Total RNA was extracted according to the manufacturer's instruction. mRNA concentration was measured via 3rd generation NanoDrop machine. 1 μg of mRNA was used for the reverse transcription reaction with random primer, dNTP mix, RNase inhibitor and M-MuLV Reverse Transcriptase. SYBR green supermix and hot start DNA polymerase were used in qPCR with TBP gene as an internal control. Gene-specific primers were purchase from Integrated DNA Technologies.

Data set [2] addresses T1, STING. Put plainly: Western blot analysis of activated STING and its downstream protein phosphorylation in THP-1 cells. The data set is classed as cell-based. Conditions: 10 μM compound, 3 h, vs DMSO. The procedure:
The Western blot analysis of activated STING and its downstream protein phosphorylation in human monocyte THP-1 cells
Human monocyte cell THP-1 were purchased from ATCC (Catalog No. TIB-202). The complete growth medium was made with ATCC-formulated RPMI-1640 Medium (Catalog No. 30-2001) and supplemented with 2-mercaptoethanol to a final concentration of 0.05 mM, and fetal bovine serum (FBS) to a final concentration of 10%.
After the THP-1 cells were treated with the 10 μM invented compounds for 3 hours, the cells were lysed by RIPA buffer, followed by washing with PBS. The total protein concentration was measured by BCA protein assay. The 10 μg protein sample was loaded after mixing with SDS-PAGE protein loading buffer, separated on SDS-PAGE and transferred to a PVDF membrane using the semi-dry transfer apparatus. After blocking with 5% BSA for 1 hr, the membrane was incubated with 1st antibodies overnight at 4° C., followed by incubation with HRP-conjugated 2nd antibodies (Catalog No. WBULS0100 from Millipore) for another 1 hr at room temperature. Lastly, the immunocomplexes were detected via the Bio-Rad ChemiDoc Touch Imaging System. Antibodies for western blotting were purchased from Cell Signaling Technology, catalog numbers 19781 (p-STING Ser366), 13647 (STING), 5483 (p-TBK1 Ser 172), 3504 (TBK1), 4947 (p-IRF3 Ser396), 4302 (IRF3) and 7074 (HRP-linked anti-rabbit IgG).

Data set [3] is described as follows: Tolerability and body weight in CT-26 mouse model. The data set is classed as in vivo. Particulars: 3×1.5 mg/kg IP, BALB/c mice bearing CT-26. The procedure: (§1) Mice were randomized into study groups with 8 mice/group when average tumor volume was ˜70 mm^3. On day 1, 4 and 8 mice were dosed with vehicle or 1.5 mg/kg Cpd 4 (Example 4) in 5% DMSO, 45% PEG400, and 55% saline formulation by intraperitoneal injection. Tumor size and body weight were measured twice per week throughout the study. Tumor volume was calculated by applying length and width caliper measurements to the following formula: TV=0.5*L*W^2. Percent treated/control (T/C) value was calculated as 100×ΔT/ΔC (when ΔT>0) or 100×ΔT/Tsd (when ΔT<0) where ΔT and ΔC are the changes in the mean tumor volumes between the indicated day and the first day of measurement for the treatment and control groups, respectively. Tsd is the first day mean tumor volume of the treated group. Statistical analyses of the differences in tumor volume among the groups were evaluated using a one-way ANOVA. All data were analyzed using GraphPad Prism 8 (GraphPad Software, San Diego, CA). p<0.05 was considered to be statistically significant.

The test system of data set [4] is CT-26 mouse colon adenocarcinoma. Put plainly: Antitumor efficacy in s.c. CT-26 mouse colon adenocarcinoma model. The format is in vivo, BALB/c mice. The protocol: Evaluation of Antitumor Efficacy in CT-26 Mouse Model
Six- to eight-week-old male BALB/c mice of 18-20 g were purchased from Taconic Biosciences (La Jolla, CA). Mouse colon carcinoma CT-26 (from ATCC) cells were maintained in RPMI-1640 medium supplemented with 10% fetal bovine serum (FBS), 100 U/ml penicillin and 100 μg/ml streptomycin, and incubated at 37° C. and 5% CO2. The cells growing in an exponential growth phase were harvested and counted for tumor inoculation. Each mouse was inoculated subcutaneously at the left and the right flank with 5×10^4 CT-26 tumor cells in 0.1 ml of serum-free medium for tumor development.
as §1, with “On day 1, 4 and 8 mice were dosed with vehicle or 1.5 mg/kg Cpd 4 (Example 4) in 5% DMSO, 45% PEG400, and 55% saline formulation by intraperitoneal injection.” left out, “Tsd is the first day mean tumor volume of the treated group.” left out, “All data were analyzed using GraphPad Prism 8 (GraphPad Software, San Diego, CA). p<0.05 was considered to be statistically significant.” left out

T1 sequence (Q86WV6 whole entry R71H/G230A/H232R/R293Q): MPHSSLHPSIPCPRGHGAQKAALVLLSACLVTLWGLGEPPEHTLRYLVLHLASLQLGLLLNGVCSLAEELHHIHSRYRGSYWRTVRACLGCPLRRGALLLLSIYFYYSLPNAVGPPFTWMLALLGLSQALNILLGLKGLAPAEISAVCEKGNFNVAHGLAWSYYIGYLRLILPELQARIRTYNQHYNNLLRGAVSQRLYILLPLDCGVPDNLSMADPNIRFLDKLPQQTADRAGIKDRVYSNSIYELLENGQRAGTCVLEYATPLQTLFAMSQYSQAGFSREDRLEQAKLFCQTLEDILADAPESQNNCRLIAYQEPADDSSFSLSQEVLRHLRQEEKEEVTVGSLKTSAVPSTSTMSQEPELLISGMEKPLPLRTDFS

For `CCn1nc(C)cc1C(=O)/N=c1\n(C)c2cc(C(N)=O)cnc2n1C/C=C/Cn1/c(=N/C(=O)c2cc(C)nn2CC)n(C)c2cc(C(N)=O)cc(OCCCN3CCOCC3)c21` [Example 6, (E)-3-((E)-4-((E)-5-carbamoyl-2-((1-ethyl-3-methyl-1H-pyrazole-5-carbonyl)imino)-3-methyl-7-(3-morpholinopropoxy)-2,3-dihydro-1H-benzo[d]imidazol-1-yl)but-2-en-1-yl)-2-((1-ethyl-3-methyl-1H-pyrazole-5-carbonyl)imino)-1-methyl-2,3-dihydro-1H-imidazo[4,5-b]pyridine-6-carboxamide], at STING [1], the “mRNA level of CXCL10” value is given as “significantly upregulated”, the “mRNA level of IFNB” value is on record as “significantly upregulated” and the “mRNA level of ISG15” value was “significantly upregulated”.
`CCn1nc(C)cc1C(=O)Nc1nc2cc(C(N)=O)cnc2n1C/C=C/Cn1c(NC(=O)c2cc(C)nn2CC)nc2cc(C(N)=O)cc(OCCN3CCOCC3)c21` [Example 10, (E)-3-(4-(5-carbamoyl-2-(1-ethyl-3-methyl-1H-pyrazole-5-carboxamido)-7-(2-morpholinoethoxy)-1H-benzo[d]imidazol-1-yl)but-2-en-1-yl)-2-(1-ethyl-3-methyl-1H-pyrazole-5-carboxamido)-3H-imidazo[4,5-b]pyridine-6-carboxamide]: on STING [1], the “mRNA level of CXCL10” value is on record as “significantly upregulated”, the “mRNA level of IFNB” value is listed as “significantly upregulated” and the “mRNA level of ISG15” value was “significantly upregulated”. On STING [2], the p-IRF3 level result is “higher levels”, the p-TBK1 level result was “higher levels” and the “phosphorylated STING (p-STING) level” value is given as “higher levels”.
For `CCn1nc(C)cc1C(=O)Nc1nc2cc(C(N)=O)cnc2n1C/C=C/Cn1c(NC(=O)c2cc(C)nn2CC)nc2cc(C(N)=O)cc(OCCCN3CCNCC3)c21` [Example 8, (E)-3-(4-(5-carbamoyl-2-(1-ethyl-3-methyl-1H-pyrazole-5-carboxamido)-7-(3-(piperazin-1-yl)propoxy)-1H-benzo[d]imidazol-1-yl)but-2-en-1-yl)-2-(1-ethyl-3-methyl-1H-pyrazole-5-carboxamido)-3H-imidazo[4,5-b]pyridine-6-carboxamide], on STING [1], the “mRNA level of CXCL10” value is listed as “significantly upregulated”, the “mRNA level of IFNB” value is listed as “significantly upregulated” and the “mRNA level of ISG15” value is “significantly upregulated”. For the same compound, on STING [2], the p-IRF3 level result is listed as “higher levels”, the p-TBK1 level result is recorded as “higher levels” and the “phosphorylated STING (p-STING) level” value is “higher levels”.
Regarding `CCn1nc(C)cc1C(=O)Nc1nc2cc(C(N)=O)cnc2n1C/C=C/Cn1c(NC(=O)c2cc(C)nn2CC)nc2cc(C(N)=O)cc(OCCCN3CCOCC3)c21` [Example 4, (E)-3-(4-(5-carbamoyl-2-(1-ethyl-3-methyl-1H-pyrazole-5-carboxamido)-7-(3-morpholinopropoxy)-1H-benzo[d]imidazol-1-yl)but-2-en-1-yl)-2-(l-ethyl-3-methyl-1H-pyrazole-5-carboxamido)-3H-imidazo[4,5-b]pyridine-6-carboxamide], in data set [3], the body weight entry is recorded as “no bodyweight loss” and the tolerability result is on record as “well-tolerated”. For the same compound, at STING [1], the “mRNA level of CXCL10” value is listed as “significantly upregulated”, the “mRNA level of IFNB” value is “significantly upregulated” and the “mRNA level of ISG15” value is given as “significantly upregulated”. Further, the “tumor growth rate of treated/control (T/C)” value in data set [4] (3×1.5 mg/kg IP (day 1, 4, 8), day 12, s.c. CT-26 in BALB/c mice) is 19%. The “antitumor efficacy (tumor volume)” value in data set [4] (3×1.5 mg/kg IP, s.c. CT-26 in BALB/c mice) is recorded as “highly potent”. Further, on STING [2], the p-IRF3 level result is reported as “higher levels”, the p-TBK1 level result is “higher levels” and the “phosphorylated STING (p-STING) level” value is recorded as “higher levels”.
